Results from patent US20200277646A1, “METHOD OF DETERMINING TERPENE-BASED BIOCONTROL AGENTS FOR CANNABIS AND HEMP” (priority 2019, published 2020).

Key:
Format in all cases: cell-based
[1] = test system: three mold species and one species of Enterobacteriaceae found on cannabis flowers; experiment: Paper inhibition disc trials across several microbial species; details: paper inhibition discs with terpene dilutions in ethanol; EB species and three mold species
Text: The method of determining terpene-based biocontrol agents for use on cannabis and hemp include processing steps that include a. Isolate epiphytic microorganisms from cannabis ‘flower wash’ and isolate into pure cultures. b. Grow up individual fungal or bacterial broth cultures with shaking at RT until turbidity is evident; if, possible take OD600 nm reading of turbidity for each culture just prior to plating out serial dilutions onto agar plates to determine ˜CFU/ml. c. Based on CFU data from (b) above, re-inoculate fresh broth cultures for individual cultures monitoring OD600 nm to reach previous data point and make appropriate dilutions to attain complete seeding on agar petri plate. d. While allowing bacterial suspension to be absorbed into agar, prepare terpene-treated Whatman filter paper hole punches by aliquoting 25 μl of either full strength, 1:10 dilution or 1:100 dilution. Dilutions should be made into 1-15% MeOH or 1-2% castile soap. e. […] One terpene per plate at three concentrations with negative control. ii. One microbial culture seeded per plate. f. Allow plates to grow with incubation at 28° C. for overnight and photograph as well as measuring any zones of inhibition. Continue incubation for 2 more days, taking photographs and making measurements after each 24-hr period. g. Repeat steps (c) through (f) for each terpene against all microbial cultures.
These four plates show three mold species and one species of Enterobacteriaceae found on cannabis flowers 1010. One Enterobacteriaceae species sample plate and three mold species sample plates 1020. An Enterobacteriaceae Count Plate referred to herein as EB plate 1022, and mold species sample plates Mold 1 plate 1024, Mold 2 plate 1026, and Mold 3 plate 1028. The indicated colonies were picked and cultured prior to inoculation of agar petri dishes 1030. Paper inhibition discs with terpene dilutions in ethanol were applied immediately after inoculation of the agar plate as described previously 1040
The EB species and three mold species were tested for inhibition with the selected terpenes 1110. The indicated colonies were picked and cultured prior to inoculation of agar petri dishes 1120. Paper inhibition discs with terpene dilutions in ethanol were applied immediately after inoculation of the agar plate as described previously 1130. […] The results of the trials across several microbial species is continued in FIG. 11B.
There was also significant inhibition of bacterial growth by many of the terpenes 1150. Different microbial species were differentially affected by individual terpenes 1160. […]

[2] = test system: mold found on a cannabis flower; experiment: Terpene added to known contaminated sample during preparation of the culture plate
Text: Terpenes can inhibit the growth of mold found on a cannabis flower 840. An effective range is 1-5% with some inhibition at levels as low as 0.1% 850 of one embodiment.

[3] = test system: yeast and mold species from certified reference materials; experiment: Paper disc inhibition on agar plates of yeast and mold species from certified reference materials; details: paper discs, terpene only, 10% and 1% dilutions in ethanol; ethanol-only center disc
Experimental: Paper discs were added to the plates, and small volumes of terpenes diluted in ethanol were added to the discs 902. The center discs had ethanol only, while ‘1:1’ discs had terpene only 904 and 10% and 1% dilutions of terpene in ethanol were also included 910. […] Many terpenes are likely to have inhibitory effects on microbial growth 940. […] Terpenes microbial growth inhibitor samples 970 include carene, humulene, limonene, ocimene, terpineol, and terpinolene of one embodiment.

SMILES | effectiveness among terpenes tested [1] | inhibition of mold growth ([2]; terpene added at 0.1% to known contaminated sample) | inhibition of mold growth ([2]; terpene added at 1% to known contaminated sample) | inhibition of yeast and mold growth [3]
CC(C)=CCCC(C)=CC=O [Citral, citral] | the most effective of terpenes tested | – | – | –
C=CCc1ccc(O)c(OC)c1 [eugenol] | the most effective of terpenes tested | – | – | –
CC(C)=CCC/C(C)=C/CO [geraniol] | the most effective of terpenes tested | – | – | –
C=CC(C)(O)CCC=C(C)C (stereo not shown) [linalool] | the most effective of terpenes tested | – | – | –
CC1=CCC(=C(C)C)CC1 [terpinolene] | – | significant inhibition of mold growth | significant inhibition of mold growth | the most inhibition
